Measured values as given in paper PMC5653750, “hiPSC-CM Monolayer Maturation State Determines Drug Responsiveness in High Throughput Pro-Arrhythmia Screen” (Scientific Reports, 2017).

How the values were obtained:
[1] = system: fetal-like hiPSC-CM monolayers; assay: 96-well optical mapping of action potentials (FluoVolt), fetal-like monolayers; format: cell-based, human; settings: for Maximum APD 80 Prolongation Risk Score (Fetal-like hiPSC-CM): maximal effect on APD independent of dose, APD80 divided by vehicle control APD80, 30 min treatment, concentrations up to 10 µM; for effect on action potential duration (APD80), fetal-like monolayers: spontaneous action potentials, result in words
Excerpt: (§1) hiPSC-CMs were used from two different commercial sources: Cellular Dynamics International (CDI, Madison WI) and Cellartis (Takara Bio USA). Custom made 96-well plates with inserts of PDMS (Polydimethylsiloxane) were generated essentially as before. PDMS vulcanized silicone transparent sheeting was obtained from SMI (Specialty Manufacturing, Inc, Saginaw, MI) with 40D (D, Durometer or ≈1000 kPa) hardness and 9 mm diameter coverslips were cut out to fit in each well of 96 well plates. PDMS coverslips were manually added to each well of 96 well plates (Corning) and each plate was subsequently sterilized via ethylene oxide sterilization. PDMS coverslips were then matrigel-coated (500 μg/mL; BD Biosciences, San Jose, CA) prior to plating hiPSC-CMs. Thawing and plating of cryopreserved vials of cells into 96-well plates was as essentially described before. Briefly, 5 × 10^4 cells were plated per well and allowed to form continuous monolayers and maintained in RPMI (Life Technologies) media supplemented with B27 + insulin (Life Technologies). Monolayers were maintained in culture for seven days before electrophysiological testing. Immature fetal-like hiPSC-CM monolayers were generated in 96 well plates without the PDMS coverslip inserts. Fetal-like hiPSC-CMs were also plated on matrigel coated plastic bottoms.
(§2) Optical mapping was performed as essentially described recently[22] with slight modification. A schematic of the 96-well plate optical mapping set up is shown in supplemental Fig. 1. In this assay a 96-well plate is positioned below a high speed CCD camera (200 fps, 80 × 80 pixels) on a heating block to enable recording at physiological temperature (37 °C). hiPSC-CM monolayers were loaded with the membrane potential dye called FluoVolt™ which is commercially available (ThermoFisher Scientific, F10488). Blue LED illumination was used and spontaneous or electrically excited action potentials were recorded with the CCD camera via appropriate emission filter (515 nm, green light, Chroma). For calcium flux quantification monolayers were loaded with fluo-4AM (10 µM). In this assay a 6 × 6 array of wells (supplemental Fig. 1C, 36 wells total) in the 96-well plate could be imaged simultaneously to enable rapid dose response data for all compounds using up to six different doses. Post-acquisition data analysis was done using custom software (Scroll)[22],[25] with automated peak detection capability and automated repolarization quantification to determine APD80 (action potential at 80% of repolarization). […] In some experiments electrical pacing was done to control for rate of activations (supplemental Fig. 3). A custom made frame of field stimulation electrodes was engineered to enable electrical pacing to the 6 × 6 array of wells.
(§3) Action potentials were recorded in the presence of each test compound.
(§4) The effect of each compound to prolong or shorten the APD80 of hiPSC-CM monolayers was quantified relative to vehicle control values obtained in each plate. In other words, the APD80 or CaTD80 quantified at each concentration of each compound was divided by the APD80 or CaTD80 quantified for vehicle control wells. Risk score values were quantified for both fetal-like and mature hiPSC-CM monolayers.

[2] = parameters: method as in PMID 26893184; settings: cited from earlier work
[3] = system: mature hiPSC-CM monolayers; assay: 96-well optical mapping of action potentials (FluoVolt), mature monolayers; format: cell-based, human; settings: for Maximum APD 80 Prolongation Risk Score (Mature hiPSC-CM): maximal effect on APD independent of dose, APD80 divided by vehicle control APD80, 30 min treatment, concentrations up to 10 µM; for effect on action potential duration (APD80), mature monolayers: spontaneous action potentials, result in words
Excerpt: as §1, §2, §3, §4

[4] = system: mature hiPSC-CM monolayers; assay: Calcium flux optical mapping (fluo-4AM), mature monolayers; format: cell-based, human; settings: dose response; n = 4 per dose
Method: (§5) Optical mapping was performed as essentially described recently[22] with slight modification. A schematic of the 96-well plate optical mapping set up is shown in supplemental Fig. 1. In this assay a 96-well plate is positioned below a high speed CCD camera (200 fps, 80 × 80 pixels) on a heating block to enable recording at physiological temperature (37 °C). hiPSC-CM monolayers were loaded with the membrane potential dye called FluoVolt™ which is commercially available (ThermoFisher Scientific, F10488). Blue LED illumination was used and spontaneous or electrically excited action potentials were recorded with the CCD camera via appropriate emission filter (515 nm, green light, Chroma). For calcium flux quantification monolayers were loaded with fluo-4AM (10 µM). […] Post-acquisition data analysis was done using custom software (Scroll)[22],[25] with automated peak detection capability and automated repolarization quantification to determine APD80 (action potential at 80% of repolarization). […]
(§6) Nilotinib is an anti-cancer kinase inhibitor compound with possible side effects to prolong the QT interval. […] In Fig. 7 calcium transients were recorded using fluo-4AM loaded monolayers to study the effect of nilotinib on intracellular calcium flux dynamics. […]

[5] = system: fetal-like hiPSC-CM monolayers; assay: Calcium flux optical mapping (fluo-4AM), fetal-like monolayers; format: cell-based, human; settings: dose response; n = 4 per dose
Method: as §5, §6

Row | SMILES | Maximum APD 80 Prolongation Risk Score (Fetal-like hiPSC-CM) [1] | effect on action potential duration (APD80), fetal-like monolayers [1] | Maximum APD 80 Prolongation Risk Score (Mature hiPSC-CM) [3] | effect on action potential duration (APD80), mature monolayers [3] | further results
1 | CC(C)(C)c1ccc(C(O)CCCN2CCC(C(O)(c3ccccc3)c3ccccc3)CC2)cc1 (stereo not shown) [Terfenadine, terfenadine] | 1.43 | more sensitive | 1.21 | – | CiPA risk class for causing Torsade de Pointes (TdP) [2]: intermediate risk
2 | Cc1cn(-c2cc(NC(=O)c3ccc(C)c(Nc4nccc(-c5cccnc5)n4)c3)cc(C(F)(F)F)c2)cn1 [Nilotinib, nilotinib] | 1.36 | APD prolongation was detected | 1.29 | APD prolongation was detected | calcium transient duration 80 (CaTD80), mature monolayers [4]: increased calcium transient duration 80 (CaTD80) in a dose dependent manner; calcium transient duration 80 (CaTD80), fetal-like monolayers [5]: increased calcium transient duration 80 (CaTD80) in a dose dependent manner
3 | CCCCc1oc2ccccc2c1C(=O)c1cc(I)c(OCCN(CC)CC)c(I)c1 [Amiodarone, amiodarone] | 0.91 | shortened action potential duration | 1.34 | prolong the APD | –
4 | C=C[C@H]1C[N@@]2CC[C@H]1C[C@@H]2[C@@H](O)c1ccnc2ccc(OC)cc12 [Quinidine, quinidine] | 1.91 | – | 1.81 | – | –
5 | CN1CCN(C2=Nc3cc(Cl)ccc3Nc3ccccc32)CC1 [Clozapine, clozapine] | 1.14 | – | 1.33 | – | –
6 | CC/C(=C(\c1ccccc1)c1ccc(OCCN(C)C)cc1)c1ccccc1 [Tamoxifen, tamoxifen] | 1.12 | – | 1.04 | – | –
7 | CC(C)COCC(CN(Cc1ccccc1)c1ccccc1)N1CCCC1 (stereo not shown) [Bepridil, bepridil] | – | – | 1.64 | – | CiPA risk class for causing Torsade de Pointes (TdP) [2]: high risk
8 | CN(CCOc1ccc(NS(C)(=O)=O)cc1)CCc1ccc(NS(C)(=O)=O)cc1 [Dofetilide, dofetilide] | 2.14 | – | – | did not have as severe action potential duration prolongation | action potential duration alternans, fetal-like monolayers ([1]; electrical pacing 1 Hz, 100 nM): action potential duration alternans were apparent; action potential duration alternans, mature monolayers ([3]; electrical pacing 1 Hz, 100 nM): not in the mature hiPSC-CM monolayers
9 | COc1ccc([C@@H]2Sc3ccccc3N(CCN(C)C)C(=O)[C@@H]2OC(C)=O)cc1 [Diltiazem, diltiazem] | 0.97 | – | – | – | –
10 | CNCCC(Oc1ccc(C(F)(F)F)cc1)c1ccccc1 (stereo not shown) [Fluoxetine, fluoxetine] | 1 | did not detect any APD80 prolongation | – | prolonged the action potential duration | monolayers in which quiescence was caused ([1]; 10.0 µmol L^−1, 8/8 monolayers): 100%; spontaneous beating frequency, fetal-like monolayers ([1]; sub-maximal doses (below 10.0 µmol L^−1)): nor alteration of the spontaneous beating frequency; spontaneous beating rate, mature monolayers [3]: slowed the spontaneous beating rate; quiescence, mature monolayers ([3]; any concentration tested (up to 10.0 µmol L^−1)): did not induce quiescence at any concentration tested; lowest concentration tested, at which action potential duration was already prolonged ([3]; mature monolayers): 1.0 nmol/L
11 | COc1cc(N)c(Cl)cc1C(=O)NC1CCN(CCCOc2ccc(F)cc2)CC1OC (stereo not shown) [Cisapride, cisapride] | 1.49 | – | 1.15 | – | CiPA risk class for causing Torsade de Pointes (TdP) [2]: intermediate risk
12 | COc1cccc2c1C(=O)c1c(O)c3c(c(O)c1C2=O)C[C@@](O)(C(=O)CO)C[C@@H]3O[C@H]1C[C@H](N)[C@H](O)[C@H](C)O1 [Doxorubicin, doxorubicin] | 1.15 | – | 1.15 | – | –
